Legend:
human recombinant HDAC1 = target: T1, human recombinant HDAC1 (Homo sapiens, UniProt Q13547); experiment: Inhibition assay HDAC1 (fluorogenic substrate ZMAL); format: biochemical; details: 60 min preincubation at 25 °C
T1 construct: purchased BPS Bioscience Inc. 50051
Protocol: (§1) In vitro inhibitory activities against HDAC1−3 and HDAC6 were measured as previously published with minor modifications. […] Subsequently, 50 µL trypsin solution (0.4 mg/mL trypsin in buffer: 50 mM Tris−HCl, pH = 8.0, 100 mM NaCl) was added, followed by additional 30 min of incubation at 37 °C. […] All compounds were tested at least twice in duplicates.

human recombinant HDAC2 = target: T2, human recombinant HDAC2 (Homo sapiens, UniProt Q92769); experiment: Inhibition assay HDAC2 (fluorogenic substrate ZMAL); format: biochemical; details: 60 min preincubation at 25 °C
T2 construct: purchased BPS Bioscience Inc. 50052
Protocol: as §1

[1] = target: human recombinant HDAC3/NcoR2 (Homo sapiens, UniProt O15379); experiment: Inhibition assay HDAC3 (fluorogenic substrate ZMAL); format: biochemical; details: for IC50: 60 min preincubation at 25 °C; for specificity ratio (HDAC1/HDAC3): HDAC1 over HDAC3, from IC50 values
Protocol: as §1

human recombinant HDAC6 = target: T3, human recombinant HDAC6 (Homo sapiens, UniProt Q9UBN7); experiment: Inhibition assay HDAC6 (fluorogenic substrate ZMAL); format: biochemical; details: for IC50: 15 min preincubation at 25 °C
T3 construct: purchased BPS Bioscience Inc. 50006
T3 sequence (Q9UBN7 1-1215): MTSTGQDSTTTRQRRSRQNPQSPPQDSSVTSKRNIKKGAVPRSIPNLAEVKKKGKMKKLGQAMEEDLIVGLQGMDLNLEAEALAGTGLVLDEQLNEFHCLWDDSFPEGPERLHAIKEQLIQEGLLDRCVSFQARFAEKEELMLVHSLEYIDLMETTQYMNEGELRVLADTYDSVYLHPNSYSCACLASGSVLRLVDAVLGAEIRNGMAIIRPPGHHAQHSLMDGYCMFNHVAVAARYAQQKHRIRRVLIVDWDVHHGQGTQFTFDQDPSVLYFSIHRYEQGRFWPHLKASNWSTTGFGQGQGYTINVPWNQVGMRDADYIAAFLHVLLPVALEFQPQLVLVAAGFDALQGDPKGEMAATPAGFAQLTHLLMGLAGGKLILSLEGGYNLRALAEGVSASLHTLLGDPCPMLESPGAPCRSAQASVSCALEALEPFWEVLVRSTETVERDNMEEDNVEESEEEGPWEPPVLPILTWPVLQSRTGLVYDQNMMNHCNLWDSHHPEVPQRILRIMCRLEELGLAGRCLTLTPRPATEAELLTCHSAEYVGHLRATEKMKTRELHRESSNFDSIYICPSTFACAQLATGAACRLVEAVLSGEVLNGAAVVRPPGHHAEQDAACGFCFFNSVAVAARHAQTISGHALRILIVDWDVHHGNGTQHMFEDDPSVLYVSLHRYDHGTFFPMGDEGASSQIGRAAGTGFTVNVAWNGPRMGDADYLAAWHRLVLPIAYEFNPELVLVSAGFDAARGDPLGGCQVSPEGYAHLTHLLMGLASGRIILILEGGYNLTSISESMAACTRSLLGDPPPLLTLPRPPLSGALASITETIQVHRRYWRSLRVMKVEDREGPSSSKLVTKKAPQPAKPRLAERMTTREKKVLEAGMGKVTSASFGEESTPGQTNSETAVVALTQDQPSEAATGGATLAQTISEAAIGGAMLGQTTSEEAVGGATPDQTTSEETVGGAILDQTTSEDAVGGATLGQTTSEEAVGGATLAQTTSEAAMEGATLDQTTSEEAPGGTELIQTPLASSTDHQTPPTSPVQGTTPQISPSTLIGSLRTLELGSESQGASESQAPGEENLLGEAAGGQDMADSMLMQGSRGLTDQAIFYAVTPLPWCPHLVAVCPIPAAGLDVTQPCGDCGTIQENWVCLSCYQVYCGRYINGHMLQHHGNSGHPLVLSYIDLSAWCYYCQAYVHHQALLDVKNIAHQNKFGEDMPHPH
Protocol: as §1

[2] = Solubility observed in cell culture medium; format: physicochemical; details: 50 µM in cell culture medium supplemented with 0.5% DMSO
[3] = system: human U251-MG glioblastoma cells; experiment: MTS assay, cancer cell viability, U251-MG; format: cell-based; details: U-251, 72 h, mean ± SD, n = 3, read-out: Cell Viability [%] (Vehicle = 100%) U251-MG
Protocol: (§2) F98 cells (obtained from ATCC® Washington, DC, USA) and U251-MG cells (obtained from Drs A. Feldmann and N. Metwasi, Department of Radioimmunology, HZDR, Rossendorf, Germany) were cultivated in Dulbecco’s Modified Eagle Medium (DMEM, Gibco, Invitrogen, Dun Laoghaire, Ireland) supplemented with 10% heat inactivated fetal bovine serum (Gibco, Invitrogen, Dun Laoghaire, Ireland), and 100 U/mL penicillin and 100 µg/mL streptomycin (Gibco, Invitrogen, Dun Laoghaire, Ireland) in a humidified atmosphere in a CO2 incubator (37 °C, 5% CO2).
(§3) Proliferation of F98 and U251-MG cells was determined using a commercially available MTS assay (CellTiter 96® AQueous One Solution Cell Proliferation Assay, Promega GmbH, Walldorf, Germany). Briefly, the cells were seeded into 96-well plates at a density of 5 × 10^4 cells/well 24 h prior to the experiment at 37 °C in a humidified, 5% CO2 atmosphere. On the day of the experiment, the cell culture medium was replaced by fresh medium supplemented with either test compounds (working concentration: 50 µM; prepared by 1:200 dilution from a 10 mM stock solution in 100% DMSO with cell culture medium) or vehicle (0.5% DMSO in cell culture medium), and the cells were incubated for 72 h. Subsequently, 20 µL of the MTS solution was added per well and the plate was incubated in the CO2 incubator for another 2 h. Afterwards, the absorbance was measured at a wavelength of 490 nm using a microplate reader (Model 680 microplate reader, Bio-Rad Laboratories GmbH, Feldkirchen, Germany).

rat F98 glioma cells = experiment: MTS assay, cancer cell viability, F98; format: cell-based; details: 72 h, mean ± SD, n = 3, read-out: Cell Viability [%] (Vehicle = 100%) F98
Protocol: as §2, §3

T2 sequence (Q92769 whole entry): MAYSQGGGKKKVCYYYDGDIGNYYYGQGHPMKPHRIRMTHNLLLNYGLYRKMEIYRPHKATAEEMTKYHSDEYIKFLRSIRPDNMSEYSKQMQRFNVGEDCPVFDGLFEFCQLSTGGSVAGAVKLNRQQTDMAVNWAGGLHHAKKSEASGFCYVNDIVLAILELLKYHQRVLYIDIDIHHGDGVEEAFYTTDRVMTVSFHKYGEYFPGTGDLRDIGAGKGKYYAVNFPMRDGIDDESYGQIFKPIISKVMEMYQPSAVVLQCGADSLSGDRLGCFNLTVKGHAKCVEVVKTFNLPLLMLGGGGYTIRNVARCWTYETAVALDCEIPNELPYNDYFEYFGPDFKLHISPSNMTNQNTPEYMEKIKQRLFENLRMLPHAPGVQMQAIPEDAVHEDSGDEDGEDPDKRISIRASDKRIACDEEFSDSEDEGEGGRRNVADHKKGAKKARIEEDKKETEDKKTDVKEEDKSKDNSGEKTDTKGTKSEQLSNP
T1 sequence (Q13547 whole entry): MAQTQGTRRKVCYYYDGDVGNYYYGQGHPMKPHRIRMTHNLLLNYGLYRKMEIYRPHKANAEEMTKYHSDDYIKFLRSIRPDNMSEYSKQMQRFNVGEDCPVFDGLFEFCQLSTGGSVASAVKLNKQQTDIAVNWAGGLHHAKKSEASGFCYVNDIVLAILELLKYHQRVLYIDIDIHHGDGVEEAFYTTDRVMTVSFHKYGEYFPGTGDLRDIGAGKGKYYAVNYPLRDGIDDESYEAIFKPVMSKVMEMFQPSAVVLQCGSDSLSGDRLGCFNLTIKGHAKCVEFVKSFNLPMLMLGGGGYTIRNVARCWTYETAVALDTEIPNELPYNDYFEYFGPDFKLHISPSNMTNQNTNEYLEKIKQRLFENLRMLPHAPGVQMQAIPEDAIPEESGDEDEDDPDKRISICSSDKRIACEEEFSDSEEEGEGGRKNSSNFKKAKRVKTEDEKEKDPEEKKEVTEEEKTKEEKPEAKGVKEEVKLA
human recombinant HDAC3/NcoR2, sequence (O15379 whole entry): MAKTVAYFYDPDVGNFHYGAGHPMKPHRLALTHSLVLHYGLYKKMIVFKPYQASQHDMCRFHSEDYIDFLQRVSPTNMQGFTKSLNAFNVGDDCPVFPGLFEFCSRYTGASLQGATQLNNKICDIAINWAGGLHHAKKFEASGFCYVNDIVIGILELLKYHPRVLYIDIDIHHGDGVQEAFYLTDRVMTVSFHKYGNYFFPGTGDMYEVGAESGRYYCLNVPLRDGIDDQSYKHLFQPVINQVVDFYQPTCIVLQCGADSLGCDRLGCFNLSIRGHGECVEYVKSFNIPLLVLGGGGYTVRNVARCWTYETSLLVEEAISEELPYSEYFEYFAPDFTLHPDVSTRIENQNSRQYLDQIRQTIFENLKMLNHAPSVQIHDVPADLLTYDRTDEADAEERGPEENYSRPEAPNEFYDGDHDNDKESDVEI
human recombinant HDAC3/NcoR2, sequence (Q9Y618 395-489 partner limits assumed): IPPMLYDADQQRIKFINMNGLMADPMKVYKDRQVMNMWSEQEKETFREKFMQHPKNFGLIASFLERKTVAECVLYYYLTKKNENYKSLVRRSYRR

| Structure (SMILES) | IC50 (human recombinant HDAC1) | IC50 (human recombinant HDAC2) | IC50 [1] | specificity ratio (HDAC1/HDAC3) [1] | IC50 (human recombinant HDAC6) | specificity ratio HDAC1 over HDAC6 (human recombinant HDAC6; from IC50 values) | solubility in cell culture medium [2] | viability at 50 µM [3] | viability at 50 µM (rat F98 glioma cells) |
| --- | --- | --- | --- | --- | --- | --- | --- | --- | --- |
| CC(F)C(=O)Nc1ccc(C(=O)Nc2cc(-c3ccc(F)cc3)ccc2N)cc1 (stereo not drawn) [BA6, N-(4-amino-4′-fluoro-[1,1′-biphenyl]-3-yl)-4-(2-fluoropropanamido)benzamide] | 14.9 ± 0.4 nM | 56.6 ± 0.6 nM | > 1110 nM | > 74 | > 10000 nM | – | – | – | – |
| CC(F)C(=O)NCc1ccc(C(=O)Nc2cc(-c3ccco3)ccc2N)cc1 (stereo not drawn) [BA7, N-[2-amino-5-(furan-2-yl)phenyl]-4-[(2-fluoropropanamido)methyl]benzamide] | 20.4 ± 0.3 nM | 69.1 ± 1.2 nM | 3800 ± 180 nM | – | > 10000 nM | – | – | – | – |
| CC(F)C(=O)Nc1ccc(C(=O)Nc2cc(-c3ccco3)ccc2N)cc1 (stereo not drawn) [BA8, N-[2-amino-5-(furan-2-yl)phenyl]-4-(2-fluoropropanamido)benzamide] | 24.2 ± 2.9 nM | 82.1 ± 0.1 nM | 4200 ± 80 nM | – | > 10000 nM | – | – | – | – |
| CC(F)C(=O)NCc1ccc(C(=O)Nc2cc(-c3ccoc3)ccc2N)cc1 (stereo not drawn) [BA9, N-[2-amino-5-(furan-3-yl)phenyl]-4-[(2-fluoropropanamido)methyl]benzamide] | 19.8 ± 0.4 nM | 56.3 ± 0.2 nM | 2400 ± 250 nM | – | > 10000 nM | – | – | – | – |
| CC(F)C(=O)Nc1ccc(C(=O)Nc2cc(-c3ccoc3)ccc2N)cc1 (stereo not drawn) [BA10, N-[2-amino-5-(furan-3-yl)phenyl]-4-(2-fluoropropanamido)benzamide] | 17 ± 1.2 nM | 47.7 ± 2.9 nM | 3300 ± 480 nM | – | > 10000 nM | – | – | – | – |
| Nc1ccccc1NC(=O)c1ccc(CNC(=O)OCc2cccnc2)cc1 [entinostat] | – | – | – | – | – | – | – | 55 ± 11.2% | 27.5 ± 4.4% |
| CC(=O)Nc1ccc(C(=O)Nc2ccccc2N)cc1 [tacedinaline] | – | – | – | – | – | – | – | 28.5 ± 3% | 27.1 ± 3% |
| O=C(CCCCCCC(=O)Nc1ccccc1)NO [vorinostat] | – | – | – | – | – | – | – | 36.9 ± 7.6% | 24.4 ± 7.9% |

More lines, main results first:

| IC50 (human recombinant HDAC1) | IC50 (human recombinant HDAC2) | IC50 [1] | specificity ratio (HDAC1/HDAC3) [1] | IC50 (human recombinant HDAC6) | specificity ratio HDAC1 over HDAC6 (human recombinant HDAC6; from IC50 values) | solubility in cell culture medium [2] | Structure (SMILES) | viability at 50 µM [3] | viability at 50 µM (rat F98 glioma cells) |
| --- | --- | --- | --- | --- | --- | --- | --- | --- | --- |
| 4.8 ± 0.4 nM | 64.3 ± 4.5 nM | 2300 ± 190 nM | 479 | > 10000 nM | – | – | CC(F)C(=O)NCc1ccc(C(=O)Nc2cc(-c3cccs3)ccc2N)cc1 (stereo not drawn) [BA1, N-[2-amino-5-(thiophen-2-yl)phenyl]-4-[(2-fluoropropanamido)methyl]benzamide] | – | – |
| 8.3 ± 1.4 nM | 33.5 ± 1.5 nM | > 1110 nM | – | > 10000 nM | – | – | CC(F)C(=O)Nc1ccc(C(=O)Nc2cc(-c3cccs3)ccc2N)cc1 (stereo not drawn) [BA2, N-[2-amino-5-(thiophen-2-yl)phenyl]-4-(2-fluoropropanamido)benzamide] | – | – |
| 4.8 ± 0.6 nM | 39.9 ± 3.2 nM | > 1110 nM | > 230 | > 10000 nM | > 2080 | slight precipitation | CC(F)C(=O)NCc1ccc(C(=O)Nc2cc(-c3ccsc3)ccc2N)cc1 (stereo not drawn) [BA3, N-[2-amino-5-(thiophen-3-yl)phenyl]-4-[(2-fluoropropanamido)methyl]benzamide] | – | – |
| 11.2 ± 2.4 nM | 38.1 ± 4.5 nM | > 3330 nM | – | > 10000 nM | – | – | CC(F)C(=O)Nc1ccc(C(=O)Nc2cc(-c3ccsc3)ccc2N)cc1 (stereo not drawn) [BA4, N-[2-amino-5-(thiophen-3-yl)phenyl]-4-(2-fluoropropanamido)benzamide] | – | – |
| 10.2 ± 0.4 nM | 32.2 ± 5.5 nM | 1300 ± 70 nM | – | > 10000 nM | – | – | CC(F)C(=O)NCc1ccc(C(=O)Nc2cc(-c3ccc(F)cc3)ccc2N)cc1 (stereo not drawn) [BA5, N-(4-amino-4′-fluoro-[1,1′-biphenyl]-3-yl)-4-[(2-fluoropropanamido)methyl]benzamide] | – | – |
